These are literature values, as cited in publication PMC6106931 (Alzheimer's Research & Therapy, 2018).

SMILES strings stand for the structures.

For this data set the following is noted: cited from earlier work.

Take `C[C@@]1(c2cc(NC(=O)c3ccc(C#N)cn3)ccc2F)C=CSC(N)=N1` [atabecestat]: the “plasma atabecestat free fraction” value is listed as 6%.
